From PMC11033320, “Activation of p53 signaling and regression of breast and prostate carcinoma cells by spirooxindole-benzimidazole small molecules” (Frontiers in Pharmacology, 2024)

Key:
UACC-62 = test: NCI anticancer screening, Melanoma UACC-62; format: cell-based; settings: Homo sapiens; UACC-62, 10 μM; read-out: % Growth Inhibition (GI %)
Source text: (§1) The compound has been processed according to standard method NCI-60 Human Tumor Cell Lines Screen for organic compound at development therapeutic program (DTP). Requests for access to this national resource can be submitted online at: […]

HOP-92 = test: NCI anticancer screening, Non-Small Cell Lung Cancer HOP-92; format: cell-based; settings: Homo sapiens; HOP-92, 10 μM; read-out: % Growth Inhibition (GI %)
Source text: as §1

BT-549 = test: NCI anticancer screening, Breast Cancer BT-549; format: cell-based; settings: Homo sapiens; BT-549, 10 μM; read-out: % Growth Inhibition (GI %)
Source text: as §1

SF-268 = test: NCI anticancer screening, CNS Cancer SF-268; format: cell-based; settings: Homo sapiens; SF-268, 10 μM; read-out: % Growth Inhibition (GI %)
Source text: as §1

TK-10 = test: NCI anticancer screening, Renal Cancer TK-10; format: cell-based; settings: Homo sapiens; TK-10, 10 μM; read-out: % Growth Inhibition (GI %)
Source text: as §1

NCI-H322M = test: NCI anticancer screening, Non-Small Cell Lung Cancer NCI-H322M; format: cell-based; settings: Homo sapiens, read-out: % Growth Inhibition (GI %)
Source text: as §1

SK-MEL-2 = test: NCI anticancer screening, Melanoma SK-MEL-2; format: cell-based; settings: Homo sapiens; SK-MEL-2, 10 μM; read-out: % Growth Inhibition (GI %)
Source text: as §1

HCC-2998 = test: NCI anticancer screening, Colon Cancer HCC-2998; format: cell-based; settings: Homo sapiens; HCC-2998, 10 μM; read-out: % Growth Inhibition (GI %)
Source text: as §1

NCI-H522 = test: NCI anticancer screening, Non-Small Cell Lung Cancer NCI-H522; format: cell-based; settings: Homo sapiens; NCI-H522, 10 μM; read-out: % Growth Inhibition (GI %)
Source text: as §1

CCRF-CEM = test: NCI anticancer screening, Leukemia CCRF-CEM; format: cell-based; settings: Homo sapiens, read-out: % Growth Inhibition (GI %)
Source text: as §1

T-47D = test: NCI anticancer screening, Breast Cancer T-47D; format: cell-based; settings: Homo sapiens, T47D, read-out: % Growth Inhibition (GI %)
Source text: as §1

U251 = test: NCI anticancer screening, CNS Cancer U251; format: cell-based; settings: Homo sapiens, U-251; U251, 10 μM; read-out: % Growth Inhibition (GI %)
Source text: as §1

KM12 = test: NCI anticancer screening, Colon Cancer KM12; format: cell-based; settings: Homo sapiens; KM12, 10 μM; read-out: % Growth Inhibition (GI %)
Source text: as §1

SN12C = test: NCI anticancer screening, Renal Cancer SN12C; format: cell-based; settings: Homo sapiens, read-out: % Growth Inhibition (GI %)
Source text: as §1

HCT-15 = test: NCI anticancer screening, Colon Cancer HCT-15; format: cell-based; settings: Homo sapiens; HCT-15, 10 μM; read-out: % Growth Inhibition (GI %)
Source text: as §1

PC-3 cells = test: MTT assay anticancer activity, PC-3; format: cell-based; settings: Homo sapiens, PC-3, 5 µM, mean ± SEM, read-out: growth inhibition percentage of PC-3
Source text: MTT method was done as described above.

MCF7 = test: NCI anticancer screening, Breast Cancer MCF7; format: cell-based; settings: Homo sapiens; MCF7, 10 μM; read-out: % Growth Inhibition (GI %)
Source text: as §1

SNB-19 = test: NCI anticancer screening, CNS Cancer SNB-19; format: cell-based; settings: Homo sapiens; SNB-19, 10 μM; read-out: % Growth Inhibition (GI %)
Source text: as §1

SW-620 = test: NCI anticancer screening, Colon Cancer SW-620; format: cell-based; settings: Homo sapiens; SW-620, 10 μM; read-out: % Growth Inhibition (GI %)
Source text: as §1

EKVX = test: NCI anticancer screening, Non-Small Cell Lung Cancer EKVX; format: cell-based; settings: Homo sapiens, read-out: % Growth Inhibition (GI %)
Source text: as §1

SK-MEL-28 = test: NCI anticancer screening, Melanoma SK-MEL-28; format: cell-based; settings: Homo sapiens; SK-MEL-28, 10 μM; read-out: % Growth Inhibition (GI %)
Source text: as §1

NCI-H460 = test: NCI anticancer screening, Non-Small Cell Lung Cancer NCI-H460; format: cell-based; settings: Homo sapiens; NCI-H460, 10 μM; read-out: % Growth Inhibition (GI %)
Source text: as §1

M14 = test: NCI anticancer screening, Melanoma M14; format: cell-based; settings: Homo sapiens; M14, 10 μM; read-out: % Growth Inhibition (GI %)
Source text: as §1

SNB-75 = test: NCI anticancer screening, CNS Cancer SNB-75; format: cell-based; settings: Homo sapiens; SNB-75, 10 μM; read-out: % Growth Inhibition (GI %)
Source text: as §1

OVCAR-5 = test: NCI anticancer screening, Ovarian Cancer OVCAR-5; format: cell-based; settings: Homo sapiens; OVCAR-5, 10 μM; read-out: % Growth Inhibition (GI %)
Source text: as §1

HOP-62 = test: NCI anticancer screening, Non-Small Cell Lung Cancer HOP-62; format: cell-based; settings: Homo sapiens; HOP-62, 10 μM; read-out: % Growth Inhibition (GI %)
Source text: as §1

OVCAR-3 = test: NCI anticancer screening, Ovarian Cancer OVCAR-3; format: cell-based; settings: Homo sapiens; OVCAR-3, 10 μM; read-out: % Growth Inhibition (GI %)
Source text: as §1

SR = test: NCI anticancer screening, Leukemia SR; format: cell-based; settings: Homo sapiens, read-out: % Growth Inhibition (GI %)
Source text: as §1

CAKI-1 = test: NCI anticancer screening, Renal Cancer CAKI-1; format: cell-based; settings: Homo sapiens; CAKI-1, 10 μM; read-out: % Growth Inhibition (GI %)
Source text: as §1

MDA-MB-468 = test: NCI anticancer screening, Breast Cancer MDA-MB-468; format: cell-based; settings: Homo sapiens, read-out: % Growth Inhibition (GI %)
Source text: as §1

786-0 = test: NCI anticancer screening, Renal Cancer 786-0; format: cell-based; settings: Homo sapiens; 786-0, 10 μM; read-out: % Growth Inhibition (GI %)
Source text: as §1

A549/ATCC = test: NCI anticancer screening, Non-Small Cell Lung Cancer A549/ATCC; format: cell-based; settings: Homo sapiens, read-out: % Growth Inhibition (GI %)
Source text: as §1

MOLT-4 = test: NCI anticancer screening, Leukemia MOLT-4; format: cell-based; settings: Homo sapiens; MOLT-4, 10 μM; read-out: % Growth Inhibition (GI %)
Source text: as §1

K-562 = test: NCI anticancer screening, Leukemia K-562; format: cell-based; settings: Homo sapiens, K562; K-562, 10 μM; read-out: % Growth Inhibition (GI %)
Source text: as §1

HL-60(TB) = test: NCI anticancer screening, Leukemia HL-60(TB); format: cell-based; settings: Homo sapiens, read-out: % Growth Inhibition (GI %)
Source text: as §1

SF-295 = test: NCI anticancer screening, CNS Cancer SF-295; format: cell-based; settings: Homo sapiens; SF-295, 10 μM; read-out: % Growth Inhibition (GI %)
Source text: as §1

MDA-MB 231 cells = settings: for inhibition: 5 µM
Method: Anticancer effect of the above-mentioned compounds was assayed using three human cancer cell lines. Triple negative breast cancer cell line (MDA-MB 231) and prostate cancer cell line (PC3) were cultured in DMEM (Lonza, USA) supplemented with 10% FBS. All cancer cells (4x10^3 cells/well) were seeded in sterile 96-well plates. After 24h, serial concentrations of the tested compounds were incubated with three cancer cell lines for 72 h at 37 °C in 5% CO2 incubator. […] The half maximal inhibitory concentration (IC50) values were calculated using the Graphpad Instat software.

SMILES: O=C(c1nc2ccccc2[nH]1)[C@H]1[C@H](c2ccc(Cl)cc2Cl)C2CSCN2[C@]12C(=O)Nc1ccccc12 (stereo partly drawn) [Compound 6g, (3S,6′R)-6'-(1H-Benzo [d]imidazole-2-carbonyl)-7'-(2,4-dichlorophenyl)-3′,6′,7′,7a′-tetrahydro-1′H-spiro [indoline-3.5′-pyrrolo [1,2-c]thiazol]-2-one]
- inhibition at 10 µM (UACC-62): 57%
- inhibition at 10 µM (HOP-92): 77.6%
- inhibition at 10 µM (BT-549): 92.3%
- inhibition at 10 µM (SF-268): 47%
- inhibition at 10 µM (TK-10): 107%
- inhibition at 10 µM (NCI-H322M): 79.5%
- melting point: 235 to 237 °C
- inhibition at 10 µM (SK-MEL-2): 84.4%
- inhibition at 10 µM (HCC-2998): 70.3%
- inhibition at 10 µM (NCI-H522): 71.7%
- inhibition at 10 µM (CCRF-CEM): 60.1%
- inhibition at 10 µM (T-47D): 54.4%
- inhibition at 10 µM (U251): 79%
- inhibition at 10 µM (KM12): 52.3%
- inhibition at 10 µM (SN12C): 63%
- inhibition at 10 µM (HCT-15): 56%
- inhibition at 5 µM (PC-3 cells): 54.5 ± 1.56%
- inhibition at 10 µM (MCF7): 51%
- inhibition at 10 µM (SNB-19): 70.1%
- inhibition at 10 µM (SW-620): 72.9%
- inhibition at 10 µM (EKVX): 63.5%
- inhibition at 10 µM (SK-MEL-28): 78.3%
- inhibition at 10 µM (NCI-H460): 55.5%
- inhibition at 10 µM (M14): 66.8%
- inhibition at 10 µM (SNB-75): 59.7%
- inhibition at 10 µM (OVCAR-5): 86.1%
- inhibition at 10 µM (HOP-62): 80.3%
- inhibition at 10 µM (OVCAR-3): 69.7%
- inhibition at 10 µM (SR): 45.8%
- inhibition at 10 µM (CAKI-1): 36.9%
- inhibition at 10 µM (MDA-MB-468): 69.2%
- inhibition at 10 µM (786-0): 85.9%
- inhibition at 10 µM (A549/ATCC): 62%
- inhibition at 10 µM (MOLT-4): 43%
- inhibition at 10 µM (K-562): 65.6%
- inhibition at 10 µM (HL-60(TB)): 80.7%
- inhibition at 10 µM (SF-295): 63.7%
- IC50 (MDA-MB 231 cells): 6.22 µM
- inhibition (MDA-MB 231 cells): 56.7 ± 0.87%

SMILES: O=C(c1nc2ccccc2[nH]1)[C@H]1[C@H](c2cccc(O)c2)C2CSCN2[C@]12C(=O)Nc1ccccc12 (stereo partly drawn) [Compound 6h, (3S,6′R)-6'-(1H-Benzo [d]imidazole-2-carbonyl)-7'-(3-hydroxyphenyl)-3′,6′,7′,7a′-tetrahydro-1′H-spiro [indoline-3.5′-pyrrolo [1,2-c]thiazol]-2-one]
- inhibition at 10 µM (UACC-62): 80%
- inhibition at 10 µM (HOP-92): 98.3%
- inhibition at 10 µM (BT-549): 107%
- inhibition at 10 µM (SF-268): 88.5%
- inhibition at 10 µM (TK-10): 113%
- inhibition at 10 µM (NCI-H322M): 93.5%
- melting point: 205 to 207 °C
- inhibition at 10 µM (SK-MEL-2): 102%
- inhibition at 10 µM (HCC-2998): 101%
- inhibition at 10 µM (NCI-H522): 83.9%
- inhibition at 10 µM (CCRF-CEM): 108%
- inhibition at 10 µM (T-47D): 76.3%
- inhibition at 10 µM (U251): 98.9%
- inhibition at 10 µM (KM12): 89.4%
- inhibition at 10 µM (SN12C): 94.8%
- inhibition at 10 µM (HCT-15): 103%
- inhibition at 5 µM (PC-3 cells): 40.4 ± 1.25%
- inhibition at 10 µM (MCF7): 92.8%
- inhibition at 10 µM (SNB-19): 97.8%
- inhibition at 10 µM (SW-620): 91.8%
- inhibition at 10 µM (EKVX): 96.6%
- inhibition at 10 µM (SK-MEL-28): 95.3%
- inhibition at 10 µM (NCI-H460): 94.8%
- inhibition at 10 µM (M14): 97.3%
- inhibition at 10 µM (SNB-75): 74.5%
- inhibition at 10 µM (OVCAR-5): 92.9%
- inhibition at 10 µM (HOP-62): 96.4%
- inhibition at 10 µM (OVCAR-3): 97.2%
- inhibition at 10 µM (SR): 79.1%
- inhibition at 10 µM (CAKI-1): 84.1%
- inhibition at 10 µM (MDA-MB-468): 104%
- inhibition at 10 µM (786-0): 101%
- inhibition at 10 µM (A549/ATCC): 95.4%
- inhibition at 10 µM (MOLT-4): 91.2%
- inhibition at 10 µM (K-562): 92.5%
- inhibition at 10 µM (HL-60(TB)): 104%
- inhibition at 10 µM (SF-295): 105%
- IC50 (MDA-MB 231 cells): 5.44 ± 0.167 µM
- inhibition (MDA-MB 231 cells): 40.2%
